Measurements: the NIST ThermoML archive (doi:10.1021/acs.jced.5b00051)

Experiment: molar heat capacity at constant pressure
Conditions: 101.33 kPa, Liquid, Large sample (1 g) DSC

COCCOCCO [2-(2-methoxyethoxy)ethanol]
Conditions	molar heat capacity at constant pressure [J/K/mol]
275.15 K	261.9
277.15 K	262.3
279.15 K	262.7
281.15 K	263.2
283.15 K	263.6
285.15 K	264.1
287.15 K	264.6
289.15 K	265.1
291.15 K	265.6
293.15 K	266.1
295.15 K	266.6
297.15 K	267.1
298.15 K	267.4
299.15 K	267.6
301.15 K	268.2
303.15 K	268.7
305.15 K	269.3
307.15 K	269.8
309.15 K	270.4
311.15 K	271
313.15 K	271.6
315.15 K	272.2
317.15 K	272.8
319.15 K	273.4
321.15 K	274
323.15 K	274.7
325.15 K	275.3
327.15 K	276
329.15 K	276.6
331.15 K	277.3
333.15 K	278
335.15 K	278.7
337.15 K	279.4
339.15 K	280.1

CCCOCCO [2-propoxyethanol]
Conditions	molar heat capacity at constant pressure [J/K/mol]
275.15 K	231.6
277.15 K	232.4
279.15 K	233.3
281.15 K	234.1
283.15 K	235
285.15 K	235.8
287.15 K	236.6
289.15 K	237.5
291.15 K	238.3
293.15 K	239.2
295.15 K	240.1
297.15 K	240.9
298.15 K	241.4
299.15 K	241.8
301.15 K	242.7
303.15 K	243.5
305.15 K	244.4
307.15 K	245.3
309.15 K	246.2
311.15 K	247.1
313.15 K	248
315.15 K	248.9
317.15 K	249.8
319.15 K	250.7
321.15 K	251.6
323.15 K	252.5
325.15 K	253.4
327.15 K	254.3
329.15 K	255.2
331.15 K	256.1
333.15 K	257.1
335.15 K	258
337.15 K	258.9
339.15 K	259.9

CCCCOCCOCCO [3,6-dioxa-1-decanol]
Conditions	molar heat capacity at constant pressure [J/K/mol]
275.15 K	351.2
277.15 K	351.9
279.15 K	352.7
281.15 K	353.4
283.15 K	354.2
285.15 K	354.9
287.15 K	355.7
289.15 K	356.5
291.15 K	357.3
293.15 K	358.1
295.15 K	359
297.15 K	359.8
298.15 K	360.2
299.15 K	360.6
301.15 K	361.5
303.15 K	362.4
305.15 K	363.3
307.15 K	364.2
309.15 K	365.1
311.15 K	366
313.15 K	366.9
315.15 K	367.9
317.15 K	368.8
319.15 K	369.8
321.15 K	370.8
323.15 K	371.8
325.15 K	372.8
327.15 K	373.8
329.15 K	374.8
331.15 K	375.8
333.15 K	376.9
335.15 K	377.9
337.15 K	379
339.15 K	380.1

COCCOCCOCCO [2-[2-(2-methoxyethoxy)ethoxy]ethanol]
Conditions	molar heat capacity at constant pressure [J/K/mol]
275.15 K	352.2
277.15 K	352.6
279.15 K	352.9
281.15 K	353.2
283.15 K	353.6
285.15 K	353.9
287.15 K	354.3
289.15 K	354.7
291.15 K	355.1
293.15 K	355.5
295.15 K	355.9
297.15 K	356.3
298.15 K	356.6
299.15 K	356.8
301.15 K	357.2
303.15 K	357.7
305.15 K	358.1
307.15 K	358.6
309.15 K	359.1
311.15 K	359.6
313.15 K	360.1
315.15 K	360.6
317.15 K	361.2
319.15 K	361.7
321.15 K	362.2
323.15 K	362.8
325.15 K	363.4
327.15 K	364
329.15 K	364.5
331.15 K	365.1
333.15 K	365.8
335.15 K	366.4
337.15 K	367
339.15 K	367.6
